Laboratory results reported in patent US10131652B2, “Pyrimidinyloxy benzene derivatives as herbicides” (E. I. DU PONT DE NEMOURS AND COMPANY, priority 2014, dated 2018).
Read-outs that look alike come from different tables or passages of the source.

How the values were obtained:
Experiment in all cases: Test F pre-/postemergence plant response
Format in all cases: in vivo
[1] = test system: wild poinsettia (Euphorbia heterophylla); settings: Euphorbia heterophylla, scale 0 to 100, read-out: Plant response rating, Poinsettia, Wild
Procedure, shortened: (§1)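 Visual rating versus untreated controls, 0–100 scale (0 = no effect, 100 = complete control), taken 14–21 d after treatment in greenhouse. Pre: seeds planted in silt loam, soil treated. Post: plants 2–18 cm, 1–4 leaves. Compound formulated in non-phytotoxic solvent plus surfactant.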

[2] = test system: morningglory (Ipomoea coccinea); settings: Ipomoea, pre-emergence, scale 0 to 100, read-out: Plant response rating, Morningglory
Procedure, shortened: as §1

[3] = test system: Brazilian crabgrass (Digitaria horizontalis); settings: Digitaria horizontalis, scale 0 to 100, read-out: Plant response rating, Crabgrass, Brazil
Procedure, shortened: as §1

[4] = test system: sandbur (southern sandbur, Cenchrus echinatus); settings: Cenchrus echinatus, scale 0 to 100, read-out: Plant response rating, Sandbur
Procedure, shortened: as §1

soybean (Glycine max) = settings: Glycine max, scale 0 to 100, read-out: Plant response rating, Soybean
Procedure, shortened: as §1

[5] = test system: dayflower (Virginia (VA) dayflower, Commelina virginica); settings: Commelina virginica, scale 0 to 100, read-out: Plant response rating, Dayflower, VA
Procedure, shortened: as §1

[6] = test system: green foxtail (Setaria viridis); settings: Setaria viridis, pre-emergence, scale 0 to 100, read-out: Plant response rating, Foxtail, Green
Procedure, shortened: as §1

[7] = test system: johnsongrass (Sorghum halepense); settings: Sorghum halepense, pre-emergence, scale 0 to 100, read-out: Plant response rating, Johnsongrass
Procedure, shortened: as §1

[8] = test system: giant foxtail (Setaria faberii); settings: Setaria faberi, pre-emergence, scale 0 to 100, read-out: Plant response rating, Foxtail, Giant
Procedure, shortened: as §1

[9] = test system: goosegrass (Eleusine indica); settings: Eleusine indica, pre-emergence, scale 0 to 100, read-out: Plant response rating, Goosegrass
Procedure, shortened: as §1

[10] = test system: fall panicum (Panicum dichotomiflorum); settings: Panicum dichotomiflorum, scale 0 to 100, read-out: Plant response rating, Panicum, Fall
Procedure, shortened: as §1

[11] = test system: lambsquarters (Chenopodium album); settings: Chenopodium album, pre-emergence, scale 0 to 100, read-out: Plant response rating, Lambsquarters
Procedure, shortened: as §1

[12] = test system: palmer pigweed (Amaranthus palmeri); settings: Amaranthus palmeri, scale 0 to 100, read-out: Plant response rating, Pigweed, Palmer
Procedure, shortened: as §1

corn (Zea mays) = settings: Zea mays, scale 0 to 100
Procedure, shortened: as §1

[13] = test system: waterhemp (common waterhemp, Amaranthus rudis); settings: Amaranthus tuberculatus, scale 0 to 100, read-out: Plant response rating, Waterhemp
Procedure, shortened: as §1

[14] = test system: field bindweed (Convolvulus arvensis); settings: Convolvulus arvensis, scale 0 to 100, read-out: Plant response rating, Field Bindweed
Procedure, shortened: as §1

[15] = post-emergence, 8 g ai/ha Postemergence
[16] = post-emergence, 16 g ai/ha Postemergence
[17] = post-emergence, 31 g ai/ha Postemergence
[18] = post-emergence, 62 g ai/ha Postemergence
[19] = post-emergence, 125 g ai/ha Postemergence
[20] = pre-emergence, 8 g ai/ha Preemergence
[21] = pre-emergence, 16 g ai/ha Preemergence
[22] = pre-emergence, 31 g ai/ha Preemergence
[23] = pre-emergence, 125 g ai/ha Preemergence
[24] = pre-emergence, 62 g ai/ha Preemergence

FC(F)(F)c1cc(-c2ccccc2Oc2ncc(Cl)cn2)no1 [Compound 200, 5-chloro-2-[2-[5-(trifluoromethyl)-3-isoxazolyl]phenoxy]pyrimidine]
75%: pest or weed control at 125 g/ha [4, 23] | pest or weed control at 8 g/ha [13, 15]
30%: plant injury at 62 g/ha (soybean (Glycine max); pre-emergence, Preemergence) | pest or weed control at 31 g/ha [14, 22] | pest or weed control at 62 g/ha [14, 24] | pest or weed control at 125 g/ha [14, 23]
98%: pest or weed control at 31 g/ha [3, 22] | pest or weed control at 31 g/ha ([6]; 31 g ai/ha, Preemergence) | pest or weed control at 125 g/ha ([9]; 125 g ai/ha Preemergence) | pest or weed control at 62 g/ha ([10]; pre-emergence, Preemergence) | pest or weed control at 31 g/ha ([11]; 31 g ai/ha, Preemergence) | pest or weed control at 62 g/ha ([11]; Preemergence) | pest or weed control at 31 g/ha [12, 17] | pest or weed control at 62 g/ha [13, 18] | pest or weed control at 16 g/ha [13, 21]
25%: pest or weed control at 31 g/ha [5, 17] | Corn plant response rating (crop injury, 0 = no effect, 100 = complete kill) at 125 g/ha (corn (Zea mays); [19])
85%: pest or weed control at 8 g/ha [12, 15] | pest or weed control at 16 g/ha [12, 21]
40%: pest or weed control at 31 g/ha [1, 17] | pest or weed control at 62 g/ha ([4]; pre-emergence, Preemergence) | plant injury at 31 g/ha (soybean (Glycine max); [17])
65%: plant injury at 62 g/ha (soybean (Glycine max); [18]) | pest or weed control at 31 g/ha ([8]; 31 g ai/ha Preemergence)
10%: pest or weed control at 8 g/ha [3, 15] | pest or weed control at 16 g/ha [3, 16] | pest or weed control at 16 g/ha ([6]; 16 g ai/ha, Preemergence) | pest or weed control at 8 g/ha ([9]; 8 g ai/ha Preemergence) | Corn plant response rating (crop injury, 0 = no effect, 100 = complete kill) at 31 g/ha (corn (Zea mays); [17])
95%: pest or weed control at 62 g/ha ([9]; Preemergence) | pest or weed control at 16 g/ha [12, 16] | pest or weed control at 31 g/ha [13, 17]
70%: pest or weed control at 125 g/ha [1, 23] | pest or weed control at 62 g/ha [5, 24] | pest or weed control at 16 g/ha ([9]; 16 g ai/ha Preemergence) | pest or weed control at 16 g/ha [10, 21] | pest or weed control at 8 g/ha [13, 20]
20%: pest or weed control at 31 g/ha [1, 22] | pest or weed control at 62 g/ha [3, 18] | pest or weed control at 125 g/ha [3, 19] | plant injury at 16 g/ha (soybean (Glycine max); [16]) | plant injury at 31 g/ha (soybean (Glycine max); [22]) | Corn plant response rating (crop injury, 0 = no effect, 100 = complete kill) at 62 g/ha (corn (Zea mays); [18]) | pest or weed control at 8 g/ha [14, 15] | pest or weed control at 16 g/ha [14, 16]
60%: pest or weed control at 62 g/ha [1, 18] | pest or weed control at 62 g/ha ([1]; pre-emergence, Preemergence)
15%: pest or weed control at 125 g/ha ([2]; 125 g ai/ha Preemergence) | pest or weed control at 31 g/ha [3, 17] | plant injury at 8 g/ha (soybean (Glycine max); [15]) | pest or weed control at 62 g/ha [5, 18] | pest or weed control at 16 g/ha [5, 21] | pest or weed control at 125 g/ha [10, 19]
5%: pest or weed control at 125 g/ha [4, 19] | pest or weed control at 16 g/ha [4, 21] | pest or weed control at 31 g/ha [4, 22] | pest or weed control at 31 g/ha ([7]; 31 g ai/ha Preemergence) | pest or weed control at 8 g/ha [10, 15] | pest or weed control at 16 g/ha [10, 16] | pest or weed control at 31 g/ha [10, 17] | pest or weed control at 62 g/ha [10, 18]
100%: pest or weed control at 62 g/ha [3, 24] | pest or weed control at 125 g/ha [3, 23] | pest or weed control at 125 g/ha ([6]; 125 g ai/ha, Preemergence) | pest or weed control at 62 g/ha ([6]; Preemergence) | pest or weed control at 62 g/ha ([8]; 62 g ai/ha Preemergence) | pest or weed control at 125 g/ha ([8]; 125 g ai/ha Preemergence) | pest or weed control at 125 g/ha [10, 23] | pest or weed control at 125 g/ha ([11]; 125 g ai/ha, Preemergence) | pest or weed control at 62 g/ha [12, 18] | pest or weed control at 125 g/ha [12, 19] | pest or weed control at 31 g/ha [12, 22] | pest or weed control at 125 g/ha [12, 23] | pest or weed control at 62 g/ha ([12]; pre-emergence, Preemergence) | pest or weed control at 125 g/ha [13, 19] | pest or weed control at 31 g/ha [13, 22] | pest or weed control at 125 g/ha [13, 23] | pest or weed control at 62 g/ha ([13]; pre-emergence, Preemergence)
50%: pest or weed control at 16 g/ha [1, 16] | plant injury at 125 g/ha (soybean (Glycine max); [23]) | pest or weed control at 31 g/ha [5, 22]
35%: pest or weed control at 8 g/ha [1, 15] | pest or weed control at 125 g/ha [5, 19] | pest or weed control at 62 g/ha ([7]; Preemergence) | pest or weed control at 16 g/ha ([8]; 16 g ai/ha Preemergence) | pest or weed control at 31 g/ha [10, 22] | pest or weed control at 31 g/ha [14, 17] | pest or weed control at 62 g/ha [14, 18] | pest or weed control at 125 g/ha [14, 19]
0%: pest or weed control at 8 g/ha [1, 20] | pest or weed control at 16 g/ha [1, 21] | pest or weed control at 8 g/ha ([2]; 8 g ai/ha Preemergence) | pest or weed control at 16 g/ha ([2]; 16 g ai/ha Preemergence) | pest or weed control at 31 g/ha ([2]; 31 g ai/ha Preemergence) | pest or weed control at 62 g/ha ([2]; Preemergence) | pest or weed control at 8 g/ha [3, 20] | pest or weed control at 8 g/ha [4, 15] | pest or weed control at 16 g/ha [4, 16] | pest or weed control at 31 g/ha [4, 17] | pest or weed control at 62 g/ha [4, 18] | pest or weed control at 8 g/ha [4, 20] | plant injury at 8 g/ha (soybean (Glycine max); [20]) | plant injury at 16 g/ha (soybean (Glycine max); [21]) | pest or weed control at 8 g/ha [5, 15] | pest or weed control at 16 g/ha [5, 16] | pest or weed control at 8 g/ha [5, 20] | pest or weed control at 8 g/ha ([6]; 8 g ai/ha Preemergence) | pest or weed control at 8 g/ha ([7]; 8 g ai/ha Preemergence) | pest or weed control at 16 g/ha ([7]; 16 g ai/ha Preemergence) | pest or weed control at 8 g/ha ([8]; 8 g ai/ha Preemergence) | pest or weed control at 8 g/ha [10, 20] | pest or weed control at 8 g/ha ([11]; 8 g ai/ha Preemergence) | pest or weed control at 16 g/ha ([11]; 16 g ai/ha, Preemergence) | pest or weed control at 8 g/ha [12, 20] | Corn plant response rating (crop injury, 0 = no effect, 100 = complete kill) at 8 g/ha (corn (Zea mays); [15]) | Corn plant response rating (crop injury, 0 = no effect, 100 = complete kill) at 16 g/ha (corn (Zea mays); [16]) | Corn plant response rating (crop injury, 0 = no effect, 100 = complete kill) at 8 g/ha (corn (Zea mays); [20]) | Corn plant response rating (crop injury, 0 = no effect, 100 = complete kill) at 16 g/ha (corn (Zea mays); [21]) | Corn plant response rating (crop injury, 0 = no effect, 100 = complete kill) at 31 g/ha (corn (Zea mays); [22]) | Corn plant response rating (crop injury, 0 = no effect, 100 = complete kill) at 62 g/ha (corn (Zea mays); [24]) | Corn plant response rating (crop injury, 0 = no effect, 100 = complete kill) at 125 g/ha (corn (Zea mays); [23]) | pest or weed control at 8 g/ha [14, 20] | pest or weed control at 16 g/ha [14, 21]
90%: pest or weed control at 16 g/ha [3, 21] | plant injury at 125 g/ha (soybean (Glycine max); [19]) | pest or weed control at 125 g/ha [5, 23] | pest or weed control at 125 g/ha ([7]; 125 g ai/ha Preemergence)
80%: pest or weed control at 125 g/ha [1, 19] | pest or weed control at 31 g/ha ([9]; 31 g ai/ha Preemergence) | pest or weed control at 16 g/ha [13, 16]
